From patent US20260216176A1, “USE OF PCLX-001 OR PCLX-002 AS A RADIOSENSITIZER” (ACYLEX PHARMACEUTICALS INC., priority 2023, published 2026)
“And” between values parts separate entries of the source, which are not always exact repeats. Equal values may be shown once. Read-outs that look alike come from different tables or passages of the source.

Experiment: Plasma, brain and CSF pharmacokinetics and brain tissue accumulation in mice (LC-MS/MS)
Assay type: in vivo, male C57BL/6 mice
Conditions: for Cmax: read-out: C0/Cmax; for half-life: read-out: T½ (converted)
[1] = male, C57BL/6, mouse, oral gavage 5 mg/kg, Brain
[2] = male, C57BL/6, mouse, oral gavage 5 mg/kg, CSF
[3] = male, C57BL/6, mouse, oral gavage 5 mg/kg, Plasma

In the case of `Cc1c(N[S+](=O)(O)c2c(Cl)cc(-c3ccnc(N4CCNCC4)c3)cc2Cl)c(CC(C)C)nn1C` [PCLX-001], the “Plasma Conc.” value (5 mg/kg oral, time point 0.00 h, individual animals) is reported as 0 µM, the concentration at 8 h (5 mg/kg oral, time point 0.00 h, individual animals, read-out: Brain Conc.) is reported as 0.00 nM and the concentration at 24 h (5 mg/kg oral, time point 0.00 h, individual animals, read-out: CSF Conc.) is reported as 0.00 nM. For the same compound, the “Plasma Conc.” value (5 mg/kg oral, time point 0.25 h, individual animals) was 6.76256 µM and 8.5704 µM, the concentration at 8 h (5 mg/kg oral, time point 0.25 h, individual animals, read-out: Brain Conc.) was 73.74 nM and 86.13 nM and the concentration at 24 h (5 mg/kg oral, time point 0.25 h, individual animals, read-out: CSF Conc.) was 11.50 nM and 3.78 nM and 7.47 nM. The “Plasma Conc.” value (5 mg/kg oral, time point 0.50 h, individual animals) was 8.29421 µM and 6.59189 µM, the concentration at 8 h (5 mg/kg oral, time point 0.50 h, individual animals, read-out: Brain Conc.) was 122.31 nM and 138.42 nM and the concentration at 24 h (5 mg/kg oral, time point 0.50 h, individual animals, read-out: CSF Conc.) was 4.19 nM and 2.89 nM. The “Plasma Conc.” value (5 mg/kg oral, time point 1.00 h, individual animals) was 9.05165 µM and 8.88332 µM, the concentration at 8 h (5 mg/kg oral, time point 1.00 h, individual animals, read-out: Brain Conc.) was 54.48 nM and 64.47 nM and the concentration at 24 h (5 mg/kg oral, time point 1.00 h, individual animals, read-out: CSF Conc.) was 2.72 nM and 8.67 nM and 3.50 nM. The “Plasma Conc.” value (5 mg/kg oral, time point 2.00 h, individual animals) was 5.72405 µM and 5.65943 µM, the concentration at 8 h (5 mg/kg oral, time point 2.00 h, individual animals, read-out: Brain Conc.) was 185.79 nM and 81.69 nM and 204.51 nM and the concentration at 24 h (5 mg/kg oral, time point 2.00 h, individual animals, read-out: CSF Conc.) was 7.26 nM and 15.58 nM and 16.86 nM. For the same compound, the “Plasma Conc.” value (5 mg/kg oral, time point 4.00 h, individual animals) was 13.97597 µM and 6.23447 µM and 11.66707 µM, the concentration at 8 h (5 mg/kg oral, time point 4.00 h, individual animals, read-out: Brain Conc.) was 243.03 nM and 114.75 nM and 171.09 nM and the concentration at 24 h (5 mg/kg oral, time point 4.00 h, individual animals, read-out: CSF Conc.) was 15.26 nM and 6.67 nM and 87.98 nM. The “Plasma Conc.” value (5 mg/kg oral, time point 8.00 h, individual animals) was 2.82168 µM and 6.57392 µM and 6.83235 µM, the concentration at 8 h (5 mg/kg oral, time point 8.00 h, individual animals, read-out: Brain Conc.) was 135.06 nM and 148.56 nM and the concentration at 24 h (5 mg/kg oral, time point 8.00 h, individual animals, read-out: CSF Conc.) was 30.28 nM and 5.97 nM and 7.19 nM. The “Plasma Conc.” value (5 mg/kg oral, time point 24.00 h, individual animals) was 0.00638 µM and 0.0041 µM, the concentration at 8 h (5 mg/kg oral, time point 24.00 h, individual animals, read-out: Brain Conc.) was 0.00 nM and 8.13 nM and 12.81 nM and the concentration at 24 h (5 mg/kg oral, time point 24.00 h, individual animals, read-out: CSF Conc.) was 0.00 nM. For the same compound, the “time of peak brain drug concentrations” value (after oral administration) was “approximately 4 h”, the concentration at 0.5 h (male, C57BL/6, mouse, CSF, oral, 5 mg/kg, 5 mg/kg oral, time point 0.50 h, individual animals, read-out: CSF Conc.) was 3.44 nM and the concentration at 24 h (male, C57BL/6, mouse, CSF, oral, 5 mg/kg, 5 mg/kg oral, time point 24.00 h, individual animals, read-out: CSF Conc.) was 0 nM. It also gave a Kp at 0.25 h (male, C57BL/6, mouse, brain and CSF, 5 mg/kg oral, time point 0.25 h, read-out: Brain/CSF-Kp) of 13, a concentration at 0.25 h (male, C57BL/6, mouse, brain, oral, 5 mg/kg, 5 mg/kg oral, time point 0.25 h, individual animals, read-out: Brain Conc.) of 0.135 µM and a concentration at 0.25 h (male, C57BL/6, mouse, brain, oral, 5 mg/kg, 5 mg/kg oral, time point 0.25 h, read-out: Mean Brain Conc.) of 0.0983 µM. The concentration at 0.5 h (male, C57BL/6, mouse, brain, oral, 5 mg/kg, 5 mg/kg oral, time point 0.50 h, individual animals, read-out: Brain Conc.) was 108 nM, the concentration at 0.5 h (male, C57BL/6, mouse, brain, oral, 5 mg/kg, 5 mg/kg oral, time point 0.50 h, read-out: Mean Brain Conc.) was 123 nM and the concentration at 1 h (male, C57BL/6, mouse, brain, oral, 5 mg/kg, 5 mg/kg oral, time point 1.00 h, individual animals, read-out: Brain Conc.) was 0.0755 µM. The concentration at 1 h (male, C57BL/6, mouse, brain, oral, 5 mg/kg, 5 mg/kg oral, time point 1.00 h, read-out: Mean Brain Conc.) was 0.0648 µM, the concentration at 2 h (male, C57BL/6, mouse, brain, oral, 5 mg/kg, 5 mg/kg oral, time point 2.00 h, read-out: Mean Brain Conc.) was 0.157 µM and the concentration at 4 h (male, C57BL/6, mouse, brain, oral, 5 mg/kg, 5 mg/kg oral, time point 4.00 h, read-out: Mean Brain Conc.) was 0.176 µM. It also gave a concentration at 8 h (male, C57BL/6, mouse, brain, oral, 5 mg/kg, 5 mg/kg oral, time point 8.00 h, individual animals, read-out: Brain Conc.) of 79.3 nM, a concentration at 8 h (male, C57BL/6, mouse, brain, oral, 5 mg/kg, 5 mg/kg oral, time point 8.00 h, read-out: Mean Brain Conc.) of 121 nM and a concentration at 24 h (male, C57BL/6, mouse, brain, oral, 5 mg/kg, 5 mg/kg oral, time point 24.00 h, read-out: Mean Brain Conc.) of 6.98 nM. It also gave a Kp at 0.5 h (male, C57BL/6, mouse, brain/CSF, 5 mg/kg oral, time point 0.50 h, read-out: Brain/CSF-Kp) of 35, a Kp at 1 h (male, C57BL/6, mouse, brain/CSF, 5 mg/kg oral, time point 1.00 h, read-out: Brain/CSF-Kp) of 13.1 and a Kp at 2 h (male, C57BL/6, mouse, brain/CSF, 5 mg/kg oral, time point 2.00 h, read-out: Brain/CSF-Kp) of 11.9. It also gave a Kp at 4 h (male, C57BL/6, mouse, brain/CSF, 5 mg/kg oral, time point 4.00 h, read-out: Brain/CSF-Kp) of 4.81, a Kp at 8 h (male, C57BL/6, mouse, brain/CSF, 5 mg/kg oral, time point 8.00 h, read-out: Brain/CSF-Kp) of 8.35 and a Kp at 0.25 h (male, C57BL/6, mouse, brain/plasma, 5 mg/kg oral, time point 0.25 h, read-out: B/P-Kp (brain to plasma ratio)) of 0.01. The Kp at 0.5 h (male, C57BL/6, mouse, brain/plasma, 5 mg/kg oral, time point 0.50 h, read-out: B/P-Kp (brain to plasma ratio)) was 0.02, the Kp at 1 h (male, C57BL/6, mouse, brain/plasma, 5 mg/kg oral, time point 1.00 h, read-out: B/P-Kp (brain to plasma ratio)) was 0.01 and the Kp at 2 h (male, C57BL/6, mouse, brain/plasma, 5 mg/kg oral, time point 2.00 h, read-out: B/P-Kp (brain to plasma ratio)) was 0.02. It also gave a Kp at 4 h (male, C57BL/6, mouse, brain/plasma, 5 mg/kg oral, time point 4.00 h, read-out: B/P-Kp (brain to plasma ratio)) of 0.02, a Kp at 8 h (male, C57BL/6, mouse, brain/plasma, 5 mg/kg oral, time point 8.00 h, read-out: B/P-Kp (brain to plasma ratio)) of 0.02 and a Kp at 24 h (male, C57BL/6, mouse, brain/plasma, 5 mg/kg oral, time point 24.00 h, read-out: B/P-Kp (brain to plasma ratio)) of 1.24. For the same compound, the concentration at 0.25 h (male, C57BL/6, mouse, plasma, oral, 5 mg/kg, 5 mg/kg oral, time point 0.25 h, individual animals, read-out: Plasma Conc.) was 9.59 µM, the concentration at 0.25 h (male, C57BL/6, mouse, plasma, oral, 5 mg/kg, 5 mg/kg oral, time point 0.25 h, read-out: Mean Plasma Conc.) was 8.31 µM and the concentration at 0.5 h (male, C57BL/6, mouse, plasma, oral, 5 mg/kg, 5 mg/kg oral, time point 0.50 h, individual animals, read-out: Plasma Conc.) was 4650 nM. For the same compound, the concentration at 0.5 h (male, C57BL/6, mouse, plasma, oral, 5 mg/kg, 5 mg/kg oral, time point 0.50 h, read-out: Mean Plasma Conc.) was 6510 nM, the concentration at 1 h (male, C57BL/6, mouse, plasma, oral, 5 mg/kg, 5 mg/kg oral, time point 1.00 h, individual animals, read-out: Plasma Conc.) was 7.24 µM and the concentration at 1 h (male, C57BL/6, mouse, plasma, oral, 5 mg/kg, 5 mg/kg oral, time point 1.00 h, read-out: Mean Plasma Conc.) was 8.39 µM. It also gave a concentration at 2 h (male, C57BL/6, mouse, plasma, oral, 5 mg/kg, 5 mg/kg oral, time point 2.00 h, individual animals, read-out: Plasma Conc.) of 9.73 µM, a concentration at 2 h (male, C57BL/6, mouse, plasma, oral, 5 mg/kg, 5 mg/kg oral, time point 2.00 h, read-out: Mean Plasma Conc.) of 7.04 µM and a concentration at 4 h (male, C57BL/6, mouse, plasma, oral, 5 mg/kg, 5 mg/kg oral, time point 4.00 h, read-out: Mean Plasma Conc.) of 10.6 µM. For the same compound, the concentration at 8 h (male, C57BL/6, mouse, plasma, oral, 5 mg/kg, 5 mg/kg oral, time point 8.00 h, read-out: Mean Plasma Conc.) was 5410 nM, the concentration at 24 h (male, C57BL/6, mouse, plasma, oral, 5 mg/kg, 5 mg/kg oral, time point 24.00 h, individual animals, read-out: Plasma Conc.) was 6.39 nM and the concentration at 24 h (male, C57BL/6, mouse, plasma, oral, 5 mg/kg, 5 mg/kg oral, time point 24.00 h, read-out: Mean Plasma Conc.) was 5.63 nM. The AUC(0-t) [1] was 2.15 µM·h, the Tmax [1] was 4 h and the Cmax [1] was 176 nM. The Kp (male, C57BL/6, mouse, oral gavage 5 mg/kg, Brain, read-out: T/P ratio (Tissue to plasma AUClast ratio)) was 0.02, the half-life [1] was 250 min and the AUC(0-t) [2] was 0.166 µM·h. The Tmax [2] was 4 h, the Cmax [2] was 36.6 nM and the AUC(0-t) [3] was 108 µM·h. It also gave a Tmax [3] of 4 h, a bioavailability [3] of 97% and a Cmax [3] of 10600 nM. For the same compound, the half-life [3] was 106 min.
